These results are taken from patent US20120201902A1, “ANTIMICROBIAL/PRESERVATIVE COMPOSITIONS COMPRISING BOTANICALS” (The Trustees of Columbia University in the City of New York, priority 2009, published 2012).

The subject of one data set is Aspergillus niger. The data set is described as follows: Preservative efficacy in cream (Method 1), Aspergillus niger. It counts as cell-based. As to conditions: for efficacy of solvent added to GSE, lemongrass oil and lactic acid: against A. niger.
Data set [1] concerns S. aureus. The data set is described as follows: In vitro rapid (15 seconds) antibacterial activity (Method A), S. aureus. It counts as cell-based. Here is the method: Method A: 0.8 ml of a test solution was mixed with 0.1 ml of bacterial culture (10^8 cfu/ml) and 0.1 ml of bovine serum and vortexed for 15 seconds. 9 ml of drug neutralizing Fluid (DNF) was then added and serially diluted with DNF and plated on trypticase soy agar (TSA) plates. The plates were incubated for 24-48 hours at 37° C., and colony counts were determined. For a control, a gel base was used alone. The gel base (Base 26) contains 0.2% hydroxymethylpropyl cellulose and 0.2% polyquaternium10, and 0.5% 1,3 propanediol in water.
The present example evaluates rapid (15 seconds) antibacterial activity of various agents, alone and in combination, in an aqueous gel base (Base 26) using S. aureus as the test organism. One method of testing (Method A) uses 0.8 ml of the test solution mixed with 0.1 ml of bacterial culture (10^8 cfu/ml) and 0.1 ml of Bovine serum. The solution is vortexed for 15 seconds. 9.0 ml of drug neutralizing Fluid (DNF) is then added and then serially diluted with DNF and plated on TSA plates. Plates are incubated for 24-48 hours at 37° C. and colony counts were determined. For A control, the base was used alone.

Data set [2] has as its system C. albicans. The data set can be described thus: Preservative efficacy in cream (Method 1), C. albicans. The format is cell-based, Candida albicans. The conditions noted are these: for Efficacy (log10 reduction from control growth) C. albicans: Table 67.
For data set [3], the system named is S. aureus. The data set can be described thus: Synergistic antibacterial activity of benzyl alcohol and citrus fruit extract in proteinaceous media (1 minute). The conditions noted are these: 2.0 % w/w, media 50% TSB and 50% bovine serum. It counts as cell-based. Here is the method:
Citrus fruit extract was obtained from PL Thomas (BiosecurF440D organic citrus fruit extract concentrate). The following concentrations of compounds were added to S. aureus culture (10^8 cfu/ml of media containing 50% TSB and 50% bovine serum). After 1 minute, drug neutralizing fluid (DNF) was added and mixed. The samples were then serially diluted with DNF and plated in TSA plate. The plates were incubated for 24-48 hours at 37° C. and colony counts were determined.

For data set [4], the system named is S. aureus. The conditions noted are these: erythromycin, gentamicin, vancomycin, ciproflaxin, clindamycin, tetracycline; cited from earlier work.
Data set [5] deals with C. albicans. The data set can be described thus: Efficacy of antifungal creams in pig skin method (Method D), loosely and tightly adhered organism. The format is cell-based, Candida albicans. The conditions noted are these: conclusion of Example 31 (Methods C, D, E). How it is done:
Method D: Evaluation of efficacy in pig skin method (test organism C. albicans). […] At the end of incubation, DNF (drug neutralizing fluid) was added to each piece, mixed to remove the cream and loosely adhered bacteria on the skin. Loosely adhered organism: The fluid containing the cream was removed, serially diluted with DNF and aliquots plated on TSA and incubated for 24-48 hours and colonies were counted. Tightly adhered organism: DNF was added to the rinsed pigskin and sonicated for 20 minutes to remove the tightly adhered bacteria. The fluid after sonication was serially diluted, plated on TSA and, incubate for 24-48 hours and colony counts were determined.

In data set [6] the test system is S. aureus. The data set is described as follows: In vitro rapid (15 seconds) efficacy of hand disinfectant soap (Method A with 10^9 organism). The format is cell-based.
Source text: The method of testing is same method as described above as Method A, however using 10^9 organism instead 10^8.
The test system of data set [7] is S. aureus. The data set can be described thus: In vitro rapid (15 second) efficacy of surface disinfectants. It counts as cell-based. As to conditions: surfactant base. How it is done:
The following ingredients were added in a surfactant base containing water and alkyl polyglycoside surfactant (Glucopon) (Table 125).
Table 126 provides the dadta for an in vitro rapid (15 second) antibacterial efficacy of surface disinfectants against S. aureus.
The following ingredients were added in a surfactant base containing water and alkyl polyglycoside surfactant (Glucopon) (Table 127).
Table 128 provides the results from an in vitro rapid (15 second) antibacterial efficacy of surface disinfectants against S. aureus.

For data set [8] the following is noted: cited from earlier work.
[9] abbreviates: Table 106, 3.0 % w/w in Base 26, 15 seconds.
The mark [10] stands for this setting: Table 106, 0.5 % w/w in Base 26, 15 seconds.
The mark [11] stands for this setting: Table 106, 2.0 % w/w in Base 26, 15 seconds.
[12] abbreviates: Table 107, 2.0 % w/w, 15 seconds.
Setting [13] is: Table 106, 0.2 % w/w in Base 26, 15 seconds.

For the molecule `OCCCO` [1,3 propanediol], in the data set on Aspergillus niger (1-2% preservative in hydrophilic cream base, pH 4.5-5.0, tested against Aspergillus niger and C. albicans), the “synergistic efficacy of benzyl alcohol and GSE, with and without 1,3 propanediol” value is “enhances the activity”. In addition, in the data set with S. aureus [1] (setting [9]), the log10 reduction is on record as 0.2 log10.

With `OCc1ccccc1` [Benzyl alcohol, benzyl alcohol], in the data set with Aspergillus niger (Example 5, organism not given), the “synergistic activity with the combination of GSE, lemongrass oil, and lactic acid” value is given as “synergistic activity”. Moreover, the “Efficacy (log10 reduction from control growth) A. niger” value with Aspergillus niger (Table 67, 0.5 % w/w in cream) was 1.0 log10; in the data set on Aspergillus niger (Table 67, 1.0 % w/w in cream) it was 1.9 log10. In addition, the “efficacy of solvent added to GSE, lemongrass oil and lactic acid” value with Aspergillus niger and in the data set with C. albicans [2] (against C. albicans) was “higher efficacy” throughout. In addition, the “Efficacy (log10 reduction from control growth) C. albicans” value in the data set on C. albicans [2] (0.5 % w/w in cream) is given as 1.0 log10; with C. albicans [2] (1.0 % w/w in cream), 2.7 log10. In the data set with C. albicans [2] (higher concentrations of benzyl alcohol, against C. albicans), the “synergistic activity with Zemea” value is listed as “synergistic activity”. Besides, the log10 reduction in the data set on S. aureus [1] (setting [10]) came out at 0.13 log10; in the data set with S. aureus [1] (Table 106, 1.0 % w/w in Base 26, 15 seconds), 0.14 log10; in the data set on S. aureus [1] (setting [11]), 0.18 log10; in the data set on S. aureus [1] (setting [9]), 0.2 log10; with S. aureus [1] (setting [12]) it was 0.12 log10. The “synergistic activity with citric and lactic acid” value in the data set on S. aureus [1] (benzyl alcohol at 1% and more than 1%, Base 26, 15 seconds) is given as “synergistic activity”. Besides, the “activity along with fruit acid without any botanical extracts” value in the data set on S. aureus [1] (benzyl alcohol at higher concentrations, 15 seconds) is listed as “effective”. In addition, the “Antibacterial activity against S. Aureus (10^8 CFU/ml) log10 reduction” value with S. aureus [3] was found to be 0.1 log10.

Turning to `N=C(NCCCCCCNC(=N)NC(=N)Nc1ccc(Cl)cc1)NC(=N)Nc1ccc(Cl)cc1.O=C(O)[C@H](O)[C@@H](O)[C@H](O)[C@H](O)CO.O=C(O)[C@H](O)[C@@H](O)[C@H](O)[C@H](O)CO` [Chlorhexidine gluconate], in the data set with S. aureus [1] (setting [10]), the log10 reduction is on record as 2.4 log10.

Turning to `N=C(NCCCCCCNC(=N)NC(=N)Nc1ccc(Cl)cc1)NC(=N)Nc1ccc(Cl)cc1.O=C(O)[C@H](O)[C@@H](O)[C@H](O)[C@H](O)CO.O=C(O)[C@H](O)[C@@H](O)[C@H](O)[C@H](O)CO` [Chlorhexidine gluconte], the log10 reduction in the data set with S. aureus [1] (setting [13]) stood at 1.43 log10.

For `O=C(O)CC(O)(CC(=O)O)C(=O)O` [Citric acid], the log10 reduction with S. aureus [1] (setting [13]) was found to be 0.1 log10.

As for `OCc1ccccc1` [Preservative 2], the “Efficacy (log10 reduction from control growth) A. niger” value in the data set on Aspergillus niger (Table 59, preservative in hydrophilic cream base, pH 4.5-5.0, benzyl alcohol (natural), GSE, Zemea, control growth 1 × 10^4-5 × 10^4) worked out at 0.98 log10.

As for `CCCCC(CC)COCC(O)CO` (centres unmarked) [Sensiva, Octoxyglycerin], the “efficacy of solvent added to GSE, lemongrass oil and lactic acid” value in the data set with Aspergillus niger was “not against A. niger”; with C. albicans [2] (against C. albicans) it was “effective against C. albicans”.

As for `OCCCO` [Zemea ®], in the data set on Aspergillus niger (Table 67, 0.5 % w/w in cream), the “Efficacy (log10 reduction from control growth) A. niger” value is 0.85 log10. Further, the “Efficacy (log10 reduction from control growth) C. albicans” value in the data set on C. albicans [2] (0.5 % w/w in cream) was found to be 0.5 log10.

For `CC(C)=CCC/C(C)=C/CC1CCCC1=O` (centres unmarked) [apritone], the “susceptibility of S. aureus to antibiotics” value (shortened to “susceptibility of S. aureus”) with S. aureus [4] is given as “enhanced the susceptibility”.

Consider `O=C1O[C@H]([C@@H](O)CO)C(O)=C1O` [ascorbic acid], for which the “synergistic activity of organic acids with benzyl alcohol” value (shortened to “synergistic activity of organic acids”) in the data set with S. aureus [1] is recorded as “not effective”. Also, the log10 reduction with S. aureus [1] (setting [12]) turned out to be 0.1 log10.

For the molecule `O=C(O)c1ccccc1` [benzoic acid], in the data set with S. aureus [1], the “synergistic activity of organic acids” value is recorded as “synergistic activity”. Moreover, the log10 reduction in the data set with S. aureus [1] (setting [12]) turned out to be 0.1 log10.

For `CC(C)=CCC[C@](C)(O)C1CC=C(C)CC1` (some centres unmarked) [bisabolol], the “susceptibility of S. aureus” value with S. aureus [4] was “enhanced the susceptibility”.

As for `[H]/N=C(\N/C(=N/[H])NCCCCCCNC(=N)NC(=N)Nc1ccc(Cl)cc1)Nc1ccc(Cl)cc1` [chlorhexidine, reference compound], the “synergistic activity with benzyl alcohol and fruit acids” value with S. aureus [1] (Base 26, 15 seconds) is listed as “synergistic activity”.

Consider `CC(C)=CCCC(C)=CCCC(C)=CCO` [farnesol], for which, in the data set with S. aureus [4], the “susceptibility of S. aureus” value was “enhanced the susceptibility”.

Consider `CC(O)C(=O)O` (centres unmarked) [lactic acid], for which the “synergistic activity of organic acids” value in the data set on S. aureus [1] was “synergistic activity”. The results for the log10 reduction in the data set on S. aureus [1] (setting [13]), in the data set with S. aureus [1] (setting [11]) and in the data set on S. aureus [1] (setting [12]) were 0.1 log10, 0.11 log10 and 0.11 log10, respectively.

Turning to `Clc1ccc(COC(Cn2ccnc2)c2ccc(Cl)cc2Cl)c(Cl)c1` (centres unmarked) [miconazole], the “antifungal activity with synergistic combination of benzyl alcohol, fruit acid, biguanide and benzalkonium chloride” value in the data set on C. albicans [5] is “significantly enhanced”.

As to `C=CC(C)(O)CCC=C(C)CCC=C(C)C` (centres unmarked) [nerolidol], the “susceptibility of S. aureus” value in the data set with S. aureus [4] was “enhanced the susceptibility”.

For `Oc1cc(Cl)ccc1Oc1ccc(Cl)cc1Cl` [triclosan], in the data set with S. aureus [6], the “synergistic action with BPC (benzyl alcohol, propanediol, citric acid)” value was “synergistic action”.

Take “(polyiminoimidocarbonyliminoimidocarbonyl-iminohexamethylene)hydro-chloride [Vantocil]”: in the data set with S. aureus [7], the “synergistic activity with benzyl alcohol and fruit acids” value is reported as “synergistic activity”; the “synergistic activity with benzyl alcohol and lactic acid” value is listed as “synergistic activity”.

As to “benzalkonium chloride [reference compound]”, the “synergistic activity with benzyl alcohol and fruit acids” value with S. aureus [1] (Base 26, 15 seconds) is recorded as “synergistic activity”. Also, the log10 reduction in the data set with S. aureus [1] (Table 106, 0.1 % w/w in Base 26, 15 seconds) is recorded as 2.7 log10. In addition, the “synergistic action with BPC (benzyl alcohol, propanediol, citric acid)” value in the data set with S. aureus [6] is reported as “synergistic action”.

Turning to zinc picolinate, the “water solubility (in words)” value in [8] was “moderately water soluble”.
